Values of other authors as cited in US7655753B2, “Conjugate” (PhotoBiotics Limited, priority 2001, dated 2010).

Experiments:
Bladder cancer = settings: clinical PDT
Barrett's mucosal cancer = settings: clinical PDT
[1] = system: Basal cell cancer of skin; settings: clinical PDT, topical administration
[2] = system: Barrett's oesophagus cancer; settings: clinical PDT, systemic administration
Oral cancer = settings: clinical PDT, over 5-53 months
[3] = system: Chest wall recurrence in breast cancer; settings: clinical PDT

In the case of Hematoporphyrin derivative, the “alive after 5 years” value (Bladder cancer) is listed as 30% alive after 5 years and the complete response (Bladder cancer) is listed as 74% complete response,.
In the case of porfimer sodium, the “persistence in the body” value (leading to skin photosensitivity) is given as “weeks”, the “conversion to normal epithelium” value (Barrett's mucosal cancer) is given as 75% conversion to and the tumour outcome (Barrett's mucosal cancer) is given as “tumours eliminated”.
For `Oc1cccc(-c2c3nc(c(-c4cccc(O)c4)c4ccc([nH]4)c(-c4cccc(O)c4)c4nc(c(-c5cccc(O)c5)c5ccc2[nH]5)CC4)C=C3)c1` [Foscan, meta-tetrahydroxyphenyl chlorin], the “skin photosensitivity (duration)” value (in vivo) is listed as “about 2 weeks”.
In the case of `NCC(=O)CCC(=O)O` [ALA, 5-aminolaevulanic acid], the complete response [1] is listed as 90% complete response and the High-grade dysplasia outcome [2] is listed as “eradicated in all patients”.
For Dihematoporphyrin ether, the complete response (Oral cancer) is listed as 87% complete response, the complete response [3] is listed as 20% complete response, and the partial response [3] is listed as 45% partial response.
